Assay results from PubChem BioAssay AID1845196 (Molecular Pharmacology Branch, DTP, NCI, 2023).
Values joined by “and” are separate entries in the source; they are usually repeats but may differ in a detail not shown here. Equal entries are not always repeated.

Tested on: 292921-168-R tumor spheroid viability
Assay: Anticancer human tumor 292921-168-R patient-derived pancreatic carcinoma cell line growth inhibition
Settings: spheroids with HUVEC and MSC; for viability, T/C: stronger effect = lower value
In short: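 Complex tumor spheroids combined malignant cells with endothelial cells and mesenchymal stem cells. DNA-damaging drugs and DNA repair inhibitors were tested alone and in combination, at half-log dilutions down from clinical Cmax (top 10 microM if Cmax unknown), 0.25% DMSO final.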
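Note: spheroids exposed to compounds for 7 days.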

`Cc1sc2c(c1C)C(c1ccc(Cl)cc1)=NC(CC(=O)Nc1ccc(O)cc1)c1nnc(C)n1-2` (centres undefined) + Cn1nnc2c(C(N)=O)ncn2c1=O showed an IC50 (curve of first compound, second compound 1 µM) of 2.43 µM, an IC50 (curve of first compound, second compound 3.16 µM) of 1.98 µM and an IC50 (curve of first compound, second compound 10 µM) of 1.91 µM. The IC50 (curve of first compound, second compound 31.6 µM) was 1.7 µM, the IC50 (curve of first compound, second compound 100 µM) was 0.904 µM and the viability, T/C (second compound 1 µM, first compound 0.00949 µM) was 109%. For the same molecule, the viability, T/C (second compound 1 µM, first compound 0.03 µM) was 111%, the viability, T/C (second compound 1 µM, first compound 0.0949 µM) was 117% and the viability, T/C (second compound 1 µM, first compound 0.3 µM) was 99.9%. It also gave a viability, T/C (second compound 1 µM, first compound 0.949 µM) of 74.6%, a viability, T/C (second compound 1 µM, first compound 3 µM) of 44.5% and a viability, T/C (second compound 3.16 µM, first compound 0.00949 µM) of 109%. It also gave a viability, T/C (second compound 3.16 µM, first compound 0.03 µM) of 117%, a viability, T/C (second compound 3.16 µM, first compound 0.0949 µM) of 113% and a viability, T/C (second compound 3.16 µM, first compound 0.3 µM) of 111%. It also gave a viability, T/C (second compound 3.16 µM, first compound 0.949 µM) of 68.9%, a viability, T/C (second compound 3.16 µM, first compound 3 µM) of 39.2% and a viability, T/C (second compound 10 µM, first compound 0.00949 µM) of 112%. For the same molecule, the viability, T/C (second compound 10 µM, first compound 0.03 µM) was 115%, the viability, T/C (second compound 10 µM, first compound 0.0949 µM) was 111% and the viability, T/C (second compound 10 µM, first compound 0.3 µM) was 89%. It also gave a viability, T/C (second compound 10 µM, first compound 0.949 µM) of 77.3%, a viability, T/C (second compound 10 µM, first compound 3 µM) of 33.9% and a viability, T/C (second compound 31.6 µM, first compound 0.00949 µM) of 107%. It also gave a viability, T/C (second compound 31.6 µM, first compound 0.03 µM) of 114%, a viability, T/C (second compound 31.6 µM, first compound 0.0949 µM) of 109% and a viability, T/C (second compound 31.6 µM, first compound 0.3 µM) of 102%. For the same molecule, the viability, T/C (second compound 31.6 µM, first compound 0.949 µM) was 67.4%, the viability, T/C (second compound 31.6 µM, first compound 3 µM) was 32.9% and the viability, T/C (second compound 100 µM, first compound 0.00949 µM) was 90.3%. It also gave a viability, T/C (second compound 100 µM, first compound 0.03 µM) of 106%, a viability, T/C (second compound 100 µM, first compound 0.0949 µM) of 95.3% and a viability, T/C (second compound 100 µM, first compound 0.3 µM) of 89.1%. It also gave a viability, T/C (second compound 100 µM, first compound 0.949 µM) of 48.3% and a viability, T/C (second compound 100 µM, first compound 3 µM) of 16.1%.

Work on `Cc1cc(C)c(CNC(=O)c2cc(-c3ccc(CN4CCOCC4)cc3)cc3c2cnn3C2CCCC2)c(=O)[nH]1` + COc1cc2c(cc1O)CCNC21CSC2c3c(OC(C)=O)c(C)c4c(c3C(COC1=O)N1C(O)C3Cc5cc(C)c(OC)c(O)c5C(C21)N3C)OCO4 yielded an IC50 (curve of first compound, second compound 30 pM) greater than 10 µM, an IC50 (curve of first compound, second compound 94.9 pM) greater than 10 µM and an IC50 (curve of first compound, second compound 0.0003 µM) of 0.629 µM. The IC50 (curve of first compound, second compound 0.000949 µM) was less than 0.0316 µM, the IC50 (curve of first compound, second compound 0.003 µM) was less than 0.0316 µM and the viability, T/C (second compound 30 pM, first compound 0.0316 µM) was 99.1%. The viability, T/C (second compound 30 pM, first compound 0.1 µM) was 113%, the viability, T/C (second compound 30 pM, first compound 0.316 µM) was 110% and the viability, T/C (second compound 30 pM, first compound 1 µM) was 109%. It also gave a viability, T/C (second compound 30 pM, first compound 3.16 µM) of 101%, a viability, T/C (second compound 30 pM, first compound 10 µM) of 84.2% and a viability, T/C (second compound 94.9 pM, first compound 0.0316 µM) of 97.7%. It also gave a viability, T/C (second compound 94.9 pM, first compound 0.1 µM) of 107%, a viability, T/C (second compound 94.9 pM, first compound 0.316 µM) of 108% and a viability, T/C (second compound 94.9 pM, first compound 1 µM) of 102%. It also gave a viability, T/C (second compound 94.9 pM, first compound 3.16 µM) of 101%, a viability, T/C (second compound 94.9 pM, first compound 10 µM) of 78% and a viability, T/C (second compound 0.0003 µM, first compound 0.0316 µM) of 50%. It also gave a viability, T/C (second compound 0.0003 µM, first compound 0.1 µM) of 55.4%, a viability, T/C (second compound 0.0003 µM, first compound 0.316 µM) of 47.4% and a viability, T/C (second compound 0.0003 µM, first compound 1 µM) of 49%. For the same molecule, the viability, T/C (second compound 0.0003 µM, first compound 3.16 µM) was 48%, the viability, T/C (second compound 0.0003 µM, first compound 10 µM) was 40.5% and the viability, T/C (second compound 0.000949 µM, first compound 0.0316 µM) was 5.06%. For the same molecule, the viability, T/C (second compound 0.000949 µM, first compound 0.1 µM) was 5.13%, the viability, T/C (second compound 0.000949 µM, first compound 0.316 µM) was 5.06% and the viability, T/C (second compound 0.000949 µM, first compound 1 µM) was 3.5%. It also gave a viability, T/C (second compound 0.000949 µM, first compound 3.16 µM) of 3.21%, a viability, T/C (second compound 0.000949 µM, first compound 10 µM) of 4.34% and a viability, T/C (second compound 0.003 µM, first compound 0.0316 µM) of 0.15%. The viability, T/C (second compound 0.003 µM, first compound 0.1 µM) was 0.18%, the viability, T/C (second compound 0.003 µM, first compound 0.316 µM) was 0.17% and the viability, T/C (second compound 0.003 µM, first compound 1 µM) was 0.15%. For the same molecule, the viability, T/C (second compound 0.003 µM, first compound 3.16 µM) was 0.17% and the viability, T/C (second compound 0.003 µM, first compound 10 µM) was 0.23%.

With `CC(C)n1c(=O)n(C)c2cnc3cc(F)c(-c4ccc(OCCCN5CCCCC5)nc4)cc3c21` the viability, T/C (compound 0.0316 µM) was 93.7% and 95.7% and 101%, the viability, T/C (compound 0.1 µM) was 92.2% and 101% and 92.6% and the viability, T/C (compound 0.316 µM) was 92.8% and 93.5% and 87.8%. For the same molecule, the viability, T/C (compound 1 µM) was 92.4% and 91.1% and 84%, the viability, T/C (compound 3.16 µM) was 70.3% and 70.5% and 69.1% and the viability, T/C (compound 10 µM) was 29.2% and 26.8% and 32.8%. For the same molecule, the IC50 (curve of compound) was 5.58 µM and 5.44 µM and 5.67 µM.

For `O=C(c1cc(Cc2n[nH]c(=O)c3ccccc23)ccc1F)N1CCN(C(=O)C2CC2)CC1`, the viability, T/C (compound 0.0949 µM) was 91.5% and 96.1% and 103%, the viability, T/C (compound 0.3 µM) was 102% and 99.1% and 96% and the viability, T/C (compound 0.949 µM) was 91.7% and 100% and 98.5%. The viability, T/C (compound 3 µM) was 87.8% and 89.6% and 92.7%, the viability, T/C (compound 9.49 µM) was 66.9% and 61.2% and 64.2% and the viability, T/C (compound 30 µM) was 39.4% and 35.8% and 35.6%. The IC50 (curve of compound) was 19.2 µM and 15.7 µM and 16.8 µM.
